In US12458021B2, “Microbiocidal derivatives” (SYNGENTA CROP PROTECTION AG, priority 2019, dated 2025):

What was measured:
[1] = tested on: Puccinia recondita f. sp. tritici; assay: Puccinia recondita f. sp. tritici / wheat / leaf disc preventative (brown rust); assay type: in vivo; details: foliar, wheat leaf segments cv. Kanzler, inoculated 1 day after application, assessed 7-9 days after application, read-out: control of Puccinia recondita f. sp. tritici, preventative (percent disease control compared to untreated)
In short: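 Wheat leaf segments (cv. Kanzler) on agar were sprayed with formulated compound, then inoculated with spores 1 day later. Segments were incubated at 19 °C, 75% rh with 12 h light/dark. Percent disease control versus untreated was scored 7–9 days after application.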

[2] = tested on: Glomerella lagenarium (Colletotrichum lagenarium); assay: Glomerella lagenarium (Colletotrichum lagenarium) / liquid culture (anthracnose); assay type: cell-based; details: Colletotrichum orbiculare, PDB potato dextrose broth, 24° C., 3-4 days after application, read-out: control of Glomerella lagenarium (inhibition of growth, photometric)
In short: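 Conidia from cryogenic storage suspended in potato dextrose broth and added to DMSO compound solution in plates. Incubated at 24° C; growth inhibition read photometrically 3-4 days after application.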

Alternaria solani = Alternaria solani / tomato / leaf disc (early blight); assay type: in vivo; details: foliar, tomato leaf disks cv. Baby, inoculated 2 days after application, assessed 5-7 days after application, read-out: control of Alternaria solani (percent disease control compared to untreated)
Protocol: Example B1: Alternaria solani/Tomato/Leaf Disc (Early Blight) Tomato leaf disks cv. Baby are placed on agar in multiwell plates (24-well format) and sprayed with the formulated test compound diluted in water. The leaf disks are inoculated with a spore suspension of the fungus 2 days after application. The inoculated leaf disks are incubated at 23° C./21° C. […] […]-185.

[3] = tested on: Blumeria graminis f. sp. tritici (Erysiphe graminis f. sp. tritici); assay: Blumeria graminis f. sp. tritici / wheat / leaf disc preventative (powdery mildew on wheat); assay type: in vivo; details: foliar, wheat leaf segments cv. Kanzler, inoculated 1 day after application, assessed 6-8 days after application, read-out: control of Blumeria graminis f. sp. tritici (percent disease control compared to untreated)
Text: Example B4: Blumeria graminis f. sp. tritici (Erysiphe graminis f. sp. tritici)/Wheat/Leaf Disc Preventative (Powdery Mildew on Wheat) Wheat leaf segments cv. Kanzler are placed on agar in a multiwell plate (24-well format) and sprayed with the formulated test compound diluted in water. The leaf disks are inoculated by shaking powdery mildew infected plants above the test plates 1 day after application. […] […]-192.

[4] = tested on: Puccinia recondita f. sp. tritici; assay: Puccinia recondita f. sp. tritici / wheat / leaf disc curative (brown rust); assay type: in vivo; details: foliar, wheat leaf segments cv. Kanzler, compound applied 1 day after inoculation, assessed 6-8 days after application, read-out: control of Puccinia recondita f. sp. tritici, curative (percent disease control compared to untreated)
Protocol: Example B10: Puccinia recondita f. sp. tritici/Wheat/Leaf Disc Curative (Brown Rust) Wheat leaf segments cv. Kanzler are placed on agar in multiwell plates (24-well format). The leaf segments are inoculated with a spore suspension of the fungus. Plates are stored in darkness at 19° C. and 75% rh. The formulated test compound diluted in water is applied 1 day after inoculation. […] […]-185.

[5] = tested on: Monographella nivalis (Microdochium nivale); assay: Monographella nivalis (Microdochium nivale) / liquid culture (foot rot cereals); assay type: cell-based; details: PDB potato dextrose broth, 24° C., 4-5 days after application, read-out: control of Monographella nivalis (inhibition of growth, photometric)
In short: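 Cryostored M. nivalis conidia mixed into potato dextrose broth and added to 96-well plates holding test compound in DMSO. Incubated at 24° C; growth inhibition read photometrically 4-5 days after application.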

[6] = tested on: Magnaporthe grisea (Pyricularia oryzae); assay: whole plant or invertebrate; assay type: in vivo; details: foliar, read-out: control of Magnaporthe grisea (percent disease control compared to untreated)
Pyrenophora teres = Pyrenophora teres / barley / leaf disc preventative (net blotch); assay type: in vivo; details: foliar, barley leaf segments cv. Hasso, inoculated 2 days after application, assessed 5-7 days after application, read-out: control of Pyrenophora teres (disease control compared to untreated)
In short: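 Barley cv. Hasso leaf discs on agar were sprayed with diluted formulated compound, then inoculated with spore suspension 2 days later. Incubation at 20 °C, 65% rh, 12 h light/dark; disease control versus untreated assessed 5-7 days after application.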

[7] = tested on: Mycosphaerella graminicola (Septoria tritici); assay: Mycosphaerella graminicola (Septoria tritici) / liquid culture (Septoria blotch); assay type: cell-based; details: Zymoseptoria tritici, PDB potato dextrose broth, 24° C., 4-5 days after application, read-out: control of Mycosphaerella graminicola (inhibition of growth, photometric)
In short: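 Conidia from cryogenic storage were mixed into potato dextrose broth and added to test compound in DMSO. Plates were incubated at 24° C, and growth inhibition was read photometrically 4-5 days after application.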

Sclerotinia sclerotiorum = Sclerotinia sclerotiorum / liquid culture (cottony rot); assay type: cell-based; details: PDB potato dextrose broth, mycelia fragments, 24° C., 3-4 days after application, read-out: control of Sclerotinia sclerotiorum (inhibition of growth, photometric)
Protocol: Example B14: Sclerotinia sclerotiorum/Liquid Culture (Cottony Rot) Mycelia fragments of a newly grown liquid culture of the fungus are directly mixed into nutrient broth (PDB potato dextrose broth). After placing a (DMSO) solution of test compound into a microtiter plate (96-well format) the nutrient broth containing the fungal material is added. The test plates are incubated at 24° C. and the inhibition of growth is determined photometrically 3-4 days after application.

[8] = tested on: Botryotinia fuckeliana (Botrytis cinerea); assay: Botryotinia fuckeliana (Botrytis cinerea) / liquid culture (gray mould); assay type: cell-based; details: Vogels broth, 24° C., 3-4 days after application, read-out: control of Botryotinia fuckeliana (inhibition of growth, photometric)
Protocol: Example B2: Botryotinia fuckeliana (Botrytis cinerea)/Liquid Culture (Gray Mould) Conidia of the fungus from cryogenic storage are directly mixed into nutrient broth (Vogels broth). After placing a (DMSO) solution of test compound into a microtiter plate (96-well format), the nutrient broth containing the fungal spores is added. The test plates are incubated at 24° C. and the inhibition of growth is determined photometrically 3-4 days after application. […] […]-190.

[9] = tested on: Phaeosphaeria nodorum (Septoria nodorum); assay: Phaeosphaeria nodorum (Septoria nodorum) / wheat / leaf disc preventative (glume blotch); assay type: in vivo; details: Parastagonospora nodorum, foliar, wheat leaf segments cv. Kanzler, inoculated 2 days after application, assessed 5-7 days after application, read-out: control of Phaeosphaeria nodorum (percent disease control compared to untreated)
In short: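 Wheat cv. Kanzler leaf discs on agar were sprayed with formulated compound diluted in water and inoculated with spores 2 days later. Discs were kept at 20° C, 75% rh, 12 h light/dark; percent disease control versus untreated was scored 5-7 days after application.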

[10] = tested on: Mycosphaerella arachidis (Cercospora arachidicola); assay: Mycosphaerella arachidis (Cercospora arachidicola) / liquid culture (early leaf spot); assay type: cell-based; details: PDB potato dextrose broth, 24° C., 4-5 days after application, read-out: control of Mycosphaerella arachidis (inhibition of growth, photometric)
In short: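 Conidia from cryogenic storage suspended in potato dextrose broth and added to compound in DMSO. Incubation at 24° C; growth inhibition read photometrically 4-5 days after application.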

COc1ccc(Nc2cc(F)nc(F)c2)nc1C(=O)NC1(C)CCC1 [Compound P-127, 6-[(2,6-difluoro-4-pyridyl)amino]-3-methoxy-N-(1-methylcyclobutyl)pyridine-2-carboxamide]
≥ 80%: pest or weed control at 200 ppm [1] | inhibition at 20 ppm [2] | pest or weed control at 200 ppm (Alternaria solani) | pest or weed control at 200 ppm [3] | pest or weed control at 200 ppm [4] | inhibition at 20 ppm [5] | pest or weed control at 200 ppm [6] | pest or weed control at 200 ppm (Pyrenophora teres) | inhibition at 20 ppm [7]

COc1ccc(Nc2cc(F)cc(Cl)c2)nc1C(=O)NC(C)(C)C [Compound P-152, N-tert-butyl-6-(3-chloro-5-fluoro-anilino)-3-methoxy-pyridine-2-carboxamide]
≥ 80%: inhibition at 20 ppm (Sclerotinia sclerotiorum) | pest or weed control at 200 ppm [1] | inhibition at 20 ppm [2] | pest or weed control at 200 ppm (Alternaria solani) | inhibition at 20 ppm [8] | pest or weed control at 200 ppm [9] | pest or weed control at 200 ppm [3] | inhibition at 20 ppm [10] | inhibition at 20 ppm [5] | pest or weed control at 200 ppm [6] | pest or weed control at 200 ppm (Pyrenophora teres) | inhibition at 20 ppm [7]

COc1ccc(Nc2ccnc(F)c2)nc1C(=O)NC(C)(C)C [Compound P-156, N-tert-butyl-6-[(2-fluoro-4-pyridyl)amino]-3-methoxy-pyridine-2-carboxamide]
≥ 80%: pest or weed control at 200 ppm [1] | inhibition at 20 ppm [2] | pest or weed control at 200 ppm [3] | pest or weed control at 200 ppm [4] | pest or weed control at 200 ppm [6]

COc1ccc(Nc2cc(F)cc(F)c2)nc1C(=O)NC1(C)CCC1 [Compound P-118, 6-(3,5-difluoroanilino)-3-methoxy-N-(1-methylcyclobutyl)pyridine-2-carboxamide]
≥ 80%: pest or weed control at 200 ppm [1] | inhibition at 20 ppm [2] | pest or weed control at 200 ppm (Alternaria solani) | inhibition at 20 ppm [8] | pest or weed control at 200 ppm [9] | pest or weed control at 200 ppm [3] | inhibition at 20 ppm [10] | pest or weed control at 200 ppm [4] | inhibition at 20 ppm [5] | pest or weed control at 200 ppm [6] | pest or weed control at 200 ppm (Pyrenophora teres) | inhibition at 20 ppm [7]

COc1ccc(Nc2cc(F)nc(F)c2)nc1C(=O)NC1(C(C)(C)C)CCC1 [Compound P-185, N-(1-tert-butylcyclobutyl)-6-[(2,6-difluoro-4-pyridyl)amino]-3-methoxy-pyridine-2-carboxamide]
≥ 80%: pest or weed control at 200 ppm [1] | pest or weed control at 200 ppm (Alternaria solani) | pest or weed control at 200 ppm [3] | pest or weed control at 200 ppm [4] | inhibition at 20 ppm [5] | pest or weed control at 200 ppm [6] | pest or weed control at 200 ppm (Pyrenophora teres) | inhibition at 20 ppm [7]

COc1ccc(Nc2cccc(F)c2)nc1C(=O)NCC(C)(C)C [Compound P-139, N-(2,2-dimethylpropyl)-6-(3-fluoroanilino)-3-methoxy-pyridine-2-carboxamide]
≥ 80%: inhibition at 20 ppm (Sclerotinia sclerotiorum) | pest or weed control at 200 ppm [1] | inhibition at 20 ppm [2] | pest or weed control at 200 ppm (Alternaria solani) | inhibition at 20 ppm [8] | pest or weed control at 200 ppm [9] | pest or weed control at 200 ppm [3] | inhibition at 20 ppm [10] | inhibition at 20 ppm [5] | pest or weed control at 200 ppm [6] | pest or weed control at 200 ppm (Pyrenophora teres) | inhibition at 20 ppm [7]

COc1ccc(Nc2cc(F)nc(F)c2)nc1C(=O)NC(C)(C)C [Compound P-91, N-tert-butyl-6-[(2,6-difluoro-4-pyridyl)amino]-3-methoxy-pyridine-2-carboxamide]
≥ 80%: pest or weed control at 200 ppm [1] | inhibition at 20 ppm [2] | pest or weed control at 200 ppm (Alternaria solani) | pest or weed control at 200 ppm [3] | pest or weed control at 200 ppm [4] | inhibition at 20 ppm [5] | pest or weed control at 200 ppm [6] | inhibition at 20 ppm [7]

COc1ccc(Nc2cc(F)cc(F)c2)nc1C(=O)NC(C)(C)C [Compound P-93, N-tert-butyl-6-(3,5-difluoroanilino)-3-methoxy-pyridine-2-carboxamide]
≥ 80%: pest or weed control at 200 ppm [1] | inhibition at 20 ppm [2] | pest or weed control at 200 ppm (Alternaria solani) | inhibition at 20 ppm [8] | pest or weed control at 200 ppm [9] | pest or weed control at 200 ppm [3] | inhibition at 20 ppm [10] | pest or weed control at 200 ppm [4] | inhibition at 20 ppm [5] | pest or weed control at 200 ppm [6] | pest or weed control at 200 ppm (Pyrenophora teres) | inhibition at 20 ppm [7]

COc1ccc(Nc2cc(F)c(F)c(F)c2)nc1C(=O)NCC(C)(C)C [Compound P-145, N-(2,2-dimethylpropyl)-3-methoxy-6-(3,4,5-trifluoroanilino)pyridine-2-carboxamide]
≥ 80%: inhibition at 20 ppm (Sclerotinia sclerotiorum) | pest or weed control at 200 ppm [1] | inhibition at 20 ppm [2] | pest or weed control at 200 ppm (Alternaria solani) | inhibition at 20 ppm [8] | pest or weed control at 200 ppm [9] | pest or weed control at 200 ppm [3] | inhibition at 20 ppm [10] | inhibition at 20 ppm [5] | pest or weed control at 200 ppm [6] | pest or weed control at 200 ppm (Pyrenophora teres) | inhibition at 20 ppm [7]

COc1ccc(Nc2cc(F)cc(F)c2)nc1C(=O)NC1(C(C)(C)C)CCC1 [Compound P-180, N-(1-tert-butylcyclobutyl)-6-(3,5-difluoroanilino)-3-methoxy-pyridine-2-carboxamide]
≥ 80%: inhibition at 20 ppm (Sclerotinia sclerotiorum) | pest or weed control at 200 ppm [1] | inhibition at 20 ppm [2] | pest or weed control at 200 ppm (Alternaria solani) | pest or weed control at 200 ppm [9] | pest or weed control at 200 ppm [3] | inhibition at 20 ppm [10] | inhibition at 20 ppm [5] | pest or weed control at 200 ppm [6] | pest or weed control at 200 ppm (Pyrenophora teres) | inhibition at 20 ppm [7]
